The record followed here is patent US12018011B2, “Macrocyclic compounds and compositions, and methods of preparing and using the same” (Kura Oncology, Inc., priority 2021, dated 2024).

This experiment addresses T1, Recombinant human farnesyl transferase (FTase) (Homo sapiens, UniProt P49356).
T1 construct: purchased Crelux (Martinsried, Germany)
Nature of the experiment: FTase fluorescence assay (farnesylation of dansyl-GCVLS peptide). Type of experiment: biochemical. The following applies: recombinant human FTase 2.5 nM, Dansyl-GCVLS 85 nM, FPP 30 nM, 30° C., 50 minutes. An excerpt: T24/83 cell line was purchased from the European Collection of Authenticated Cell Cultures (Salisbury, UK). Recombinant human farnesyl transferase (FTase) and geranylgeranyl transferase type-1 (GGTase) were obtained from Crelux (Martinsried, Germany). Dansyl labelled GCVLS peptide was purchased from Bachem (Torrance, CA), and Dansyl labelled GCVLL peptide was purchased from Bio Synthesis (Lewisville, TX). Farnesyl Pyrophosphate (FPP) and Geranylgeranyl pyrophosphate (GGPP) were purchased from Cayman (Ann Arbor, MI).
Specific biochemical activity of the compounds disclosed herein as FTase inhibitors was determined by measuring the ability of the compounds to block the farnesylation by recombinant FTase of fluorescent (i.e., dansyl-labeled) test substrates derived from the CAAX box of farnesylated proteins, such as the peptide GCVLS.
The IC50 value of the compounds disclosed herein as inhibitors of Ftase and/or GGTase, was determined by measuring the concentration (provided in nM) necessary to achieve inhibition of enzyme activity by 50% (IC50). […] Compounds having a low IC50 value against FTase, for example an IC50 (FTase)<100 nM, such as an IC50 (FTase)<10 nM, are preferred. Compounds having a low IC50 value against FTase and a high IC50 value against GGTase, for example an IC50 (FTase)<100 nM, such as an IC50 (FTase)<10 nM, and an IC50 (GGTase)>100 nM, are potent and selective inhibitors of FTase, and are particularly preferred.
The inhibition activities of the compounds disclosed herein against Ftase and GGTase were measured in the respective fluorescence assays as follows:
For the FTase assay, recombinant human FTase (2.5 nM), Dansyl labelled GCVLS peptide (85 nM), FPP (30 nM) and inhibitor were mixed in assay buffer (50 mM Tris, pH 7.5, 10 mM magnesium chloride, 10 μM zinc chloride, 0.08% CHAPS, 5 mM dithiothreitol) and incubated in a total volume of 20 μL at 30° C. for 50 minutes.
For both the FTase assay and GGTase assay, fluorescence intensity was detected (excitation at 340 nm and emission at 486 nm) using EnVision (PerkinElmer; Waltham, MA), IC50 determinations were performed using a sigmoidal dose-response model with Xlfit software (IDBS, Inc.; Boston, MA), and tipifarnib was used as a positive control. All the assay plates for each assay passed the QC criteria (S/B, Z factor).

Broadly, the IC50 is the concentration that inhibits the measured activity by half. `Cn1cncc1[C@]1(N)c2ccc(Cl)c(c2)CCc2cccc(c2)-c2cc(=O)n(C)c3ccc1cc23` (racemic) [(R)-4, (R)-3-amino-4^4-chloro-2^1-methyl-3-(1-methyl-1H-imidazol-5-yl)-2^1,2^2-dihydro-2(4,6)-quinolina-1,4(1,3)-dibenzenacyclohexaphan-2^2-one]: the IC50 is > 0.1 µM. Regarding `Cn1cncc1[C@]1(O)c2ccc(Cl)c(c2)OCc2cccc(c2)-c2cc(=O)n(C)c3ccc1cc23` (racemic) [(R)-14, (R)-4^4-chloro-3-hydroxy-2^1-methyl-3-(1-methyl-1H-imidazol-5-yl)-2^1,2^2-dihydro-5-oxa-2(4,6)-quinolina-1,4(1,3)-dibenzenacyclohexaphan-2^2-one], the IC50 is > 0.1 µM. Turning to `Cn1cncc1[C@]1(N)c2ccc(Cl)c(c2)OCc2cccc(c2)-c2cc(=O)n(C)c3ccc1cc23` (racemic) [(R)-15, (R)-3-amino-4^4-chloro-2^1-methyl-3-(1-methyl-1H-imidazol-5-yl)-2^1,2^2-dihydro-5-oxa-2(4,6)-quinolina-1,4(1,3)-dibenzenacyclohexaphan-2^2-one], the IC50 is > 0.1 µM.

For `Cn1cncc1[C@]1(O)c2ccc(C#N)c(c2)OCc2cccc(c2)-c2cc(=O)n(C)c3ccc1cc23` (racemic) [(R)-18, (R)-3-hydroxy-2^1-methyl-3-(1-methyl-1H-imidazol-5-yl)-2^2-oxo-2^1,2^2-dihydro-5-oxa-2(4,6)-quinolina-1,4(1,3)-dibenzenacyclohexaphane-4^4-carbonitrile], the IC50 was > 0.1 µM. The same measure for `Cn1cncc1[C@]1(N)c2ccc(C#N)c(c2)OCc2cccc(c2)-c2cc(=O)n(C)c3ccc1cc23` (racemic) [(R)-19, (R)-3-amino-2^1-methyl-3-(1-methyl-1H-imidazol-5-yl)-2^2-oxo-2^1,2^2-dihydro-5-oxa-2(4,6)-quinolina-1,4(1,3)-dibenzenacyclohexaphane-4^4-carbonitrile]: > 0.1 µM; for `[2H]C([2H])([2H])n1c(=O)cc2c3cc(ccc31)[C@](N)(c1cncn1C)c1ccc(C#N)c(c1)OCc1cccc-2c1` (racemic) [(R)-20, (R)-3-amino-2^1-(methyl-d3)-3-(1-methyl-1H-imidazol-5-yl)-2^2-oxo-2^1,2^2-dihydro-5-oxa-2(4,6)-quinolina-1,4(1,3)-dibenzenacyclohexaphane-4^4-carbonitrile]: > 0.1 µM. The same measure for `Cn1cncc1[C@]1(N)c2ccc(C#N)c(c2)OCc2cccc(c2)-c2cc(C#N)nc3ccc1cc23` (racemic) [(R)-21, (R)-3-amino-3-(1-methyl-1H-imidazol-5-yl)-5-oxa-2(4,6)-quinolina-1,4(1,3)-dibenzenacyclohexaphane-2^2,4^4-dicarbonitrile]: > 0.1 µM; for `Cn1cncc1[C@]1(O)c2ccc(Cl)c(c2)OCCc2cccc(c2)-c2cc(=O)[nH]c3ccc1cc23` (racemic) [(R)-25, (R)-4^4-chloro-3-hydroxy-3-(1-methyl-1H-imidazol-5-yl)-2^1,2^2-dihydro-5-oxa-2(4,6)-quinolina-1,4(1,3)-dibenzenacycloheptaphan-2^2-one]: > 0.1 µM. In the case of `Cn1cncc1[C@]1(N)c2ccc(Cl)c(c2)OCCc2cccc(c2)-c2cc(=O)n(C)c3ccc1cc23` (racemic) [(R)-27, (R)-3-amino-4^4-chloro-2^1-methyl-3-(1-methyl-1H-imidazol-5-yl)-2^1,2^2-dihydro-5-oxa-2(4,6)-quinolina-1,4(1,3)-dibenzenacycloheptaphan-2^2-one] it was > 0.1 µM; in that of `[2H]C([2H])([2H])n1c(=O)cc2c3cc(ccc31)[C@](O)(c1cncn1C)c1ccc(Cl)c(c1)OCCc1cccc-2c1` (racemic) [(R)-28, (R)-4^4-chloro-3-hydroxy-2^1-(methyl-d3)-3-(1-methyl-1H-imidazol-5-yl)-2^1,2^2-dihydro-5-oxa-2(4,6)-quinolina-1,4(1,3)-dibenzenacycloheptaphan-2^2-one], > 0.1 µM. Turning to `Cn1cncc1[C@]1(O)c2ccc(Cl)c(c2)OCCc2cccc(c2)-c2cc(=O)n(C3CC3)c3ccc1cc23` (racemic) [(R)-29, (R)-4^4-chloro-2^1-cyclopropyl-3-hydroxy-3-(1-methyl-1H-imidazol-5-yl)-2^1,2^2-dihydro-5-oxa-2(4,6)-quinolina-1,4(1,3)-dibenzenacycloheptaphan-2^2-one], the IC50 is > 0.1 µM. Turning to `Cn1cncc1[C@]1(N)c2ccc(Cl)c(c2)OCCc2cccc(c2)-c2cc(=O)n(C3CC3)c3ccc1cc23` (racemic) [(R)-30, (R)-3-amino-4^4-chloro-2^1-cyclopropyl-3-(1-methyl-1H-imidazol-5-yl)-2^1,2^2-dihydro-5-oxa-2(4,6)-quinolina-1,4(1,3)-dibenzenacycloheptaphan-2^2-one], the half-maximal inhibitory concentration (IC50) is > 0.1 µM.

As for `[2H]C([2H])([2H])n1c(=O)cc2c3cc(ccc31)[C@](N)(c1nncn1C)c1ccc(Cl)c(c1)OCCc1cccc-2c1` (racemic) [(R)-34, (R)-3-amino-4^4-chloro-2^1-(methyl-d3)-3-(4-methyl-4H-1,2,4-triazol-3-yl)-2^1,2^2_ dihydro-5-oxa-2(4,6)-quinolina-1,4(1,3)-dibenzenacycloheptaphan-2^2-one], the IC50 is > 0.1 µM. With `Cn1cnnc1[C@]1(N)c2ccc(Cl)c(c2)OCCc2cccc(c2)-c2cc(=O)n(C3CC3)c3ccc1cc23` (racemic) [(R)-35, (R)-3-amino-4^4-chloro-2^1-cyclopropyl-3-(4-methyl-4H-1,2,4-triazol-3-yl)-2^1,2^2-dihydro-5-oxa-2(4,6)-quinolina-1,4(1,3)-dibenzenacycloheptaphan-2^2-one], the IC50 was > 0.1 µM. Regarding `Cn1cncc1[C@]1(O)c2ccc(C#N)c(c2)OCCc2cccc(c2)-c2cc(=O)n(C)c3ccc1cc23` (racemic) [(R)-36, (R)-3-hydroxy-2^1-methyl-3-(1-methyl-1H-imidazol-5-yl)-2^2-oxo-2^1,2^2-dihydro-5-oxa-2(4,6)-quinolina-1,4(1,3)-dibenzenacycloheptaphane-4^4-carbonitrile], the IC50 is > 0.1 µM. In the case of `Cn1cncc1[C@]1(N)c2ccc(C#N)c(c2)OCCc2cccc(c2)-c2cc(=O)n(C)c3ccc1cc23` (racemic) [(R)-37, (R)-3-amino-2^1-methyl-3-(1-methyl-1H-imidazol-5-yl)-2^2-oxo-2^1,2^2-dihydro-5-oxa-2(4,6)-quinolina-1,4(1,3)-dibenzenacycloheptaphane-4^4-carbonitrile] it was > 0.1 µM. For `Cn1cnnc1[C@]1(N)c2ccc(C#N)c(c2)OCCc2cccc(c2)-c2cc(=O)n(C)c3ccc1cc23` (racemic) [(R)-39, (R)-3-amino-21-methyl-3-(4-methyl-4H-1,2,4-triazol-3-yl)-2^2-oxo-2^1,2^2-dihydro-5-oxa-2(4,6)-quinolina-1,4(1,3)-dibenzenacycloheptaphane-4^4-carbonitrile], the IC50 was > 0.1 µM.

Take `Cn1cncc1[C@]1(N)c2ccc(Cl)c(c2)COc2cccc(c2)-c2cc(=O)n(C)c3ccc1cc23` (racemic) [(R)-46, (R)-3-amino-4^4-chloro-2^1-methyl-3-(1-methyl-1H-imidazol-5-yl)-2^1,2^2-dihydro-6-oxa-2(4,6)-quinolina-1,4(1,3)-dibenzenacyclohexaphan-2^2-one]: the IC50 was > 0.1 µM. The same measure for `[2H]C([2H])([2H])n1c(=O)cc2c3cc(ccc31)[C@](N)(c1cncn1C)c1ccc(Cl)c(c1)COc1cccc-2c1` (racemic) [(R)-47, (R)-3-amino-4^4-chloro-2^1-(methyl-d3)-3-(1-methyl-1H-imidazol-5-yl)-2^1,2^2-dihydro-6-oxa-2(4,6)-quinolina-1,4(1,3)-dibenzenacyclohexaphan-2^2-one]: > 0.1 µM; for `Cn1cncc1[C@]1(N)c2ccc(Cl)c(c2)COc2cccc(c2)-c2cc(C#N)nc3ccc1cc23` (racemic) [(R)-48, (R)-3-amino-4^4-chloro-3-(1-methyl-1H-imidazol-5-yl)-6-oxa-2(4,6)-quinolina-1,4(1,3)-dibenzenacyclohexaphane-2^2-carbonitrile]: 0.01 to 0.1 µM; for `Cn1cnnc1[C@]1(N)c2ccc(Cl)c(c2)COc2cccc(c2)-c2cc(=O)n(C)c3ccc1cc23` (racemic) [(R)-51, (R)-3-amino-4^4-chloro-2^1-methyl-3-(4-methyl-4H-1,2,4-triazol-3-yl)-2^1,2^2-dihydro-6-oxa-2(4,6)-quinolina-1,4(1,3)-dibenzenacyclohexaphan-2^2-one]: > 0.1 µM.
